Data published in US10227347B2, “Purinyl-N-hydroxyl pyrimidine formamide derivative, preparation methods and uses thereof” (Guizhou Bailing Group Pharmaceutical CO., LTD., priority 2015, dated 2019).
pIC50: −log10 of the molar value. Where two headings read alike, the source gives them in different places.

Columns and labels:
HDAC6 = target: T1, HDAC6 (Homo sapiens, UniProt Q9UBN7); assay: HDAC6 enzyme inhibition (Lys-Ac-AMC); assay type: biochemical; conditions: Table 4, graded
T1 construct: purchased BPS Bioscience 50006
T1 sequence (Q9UBN7 1-1215): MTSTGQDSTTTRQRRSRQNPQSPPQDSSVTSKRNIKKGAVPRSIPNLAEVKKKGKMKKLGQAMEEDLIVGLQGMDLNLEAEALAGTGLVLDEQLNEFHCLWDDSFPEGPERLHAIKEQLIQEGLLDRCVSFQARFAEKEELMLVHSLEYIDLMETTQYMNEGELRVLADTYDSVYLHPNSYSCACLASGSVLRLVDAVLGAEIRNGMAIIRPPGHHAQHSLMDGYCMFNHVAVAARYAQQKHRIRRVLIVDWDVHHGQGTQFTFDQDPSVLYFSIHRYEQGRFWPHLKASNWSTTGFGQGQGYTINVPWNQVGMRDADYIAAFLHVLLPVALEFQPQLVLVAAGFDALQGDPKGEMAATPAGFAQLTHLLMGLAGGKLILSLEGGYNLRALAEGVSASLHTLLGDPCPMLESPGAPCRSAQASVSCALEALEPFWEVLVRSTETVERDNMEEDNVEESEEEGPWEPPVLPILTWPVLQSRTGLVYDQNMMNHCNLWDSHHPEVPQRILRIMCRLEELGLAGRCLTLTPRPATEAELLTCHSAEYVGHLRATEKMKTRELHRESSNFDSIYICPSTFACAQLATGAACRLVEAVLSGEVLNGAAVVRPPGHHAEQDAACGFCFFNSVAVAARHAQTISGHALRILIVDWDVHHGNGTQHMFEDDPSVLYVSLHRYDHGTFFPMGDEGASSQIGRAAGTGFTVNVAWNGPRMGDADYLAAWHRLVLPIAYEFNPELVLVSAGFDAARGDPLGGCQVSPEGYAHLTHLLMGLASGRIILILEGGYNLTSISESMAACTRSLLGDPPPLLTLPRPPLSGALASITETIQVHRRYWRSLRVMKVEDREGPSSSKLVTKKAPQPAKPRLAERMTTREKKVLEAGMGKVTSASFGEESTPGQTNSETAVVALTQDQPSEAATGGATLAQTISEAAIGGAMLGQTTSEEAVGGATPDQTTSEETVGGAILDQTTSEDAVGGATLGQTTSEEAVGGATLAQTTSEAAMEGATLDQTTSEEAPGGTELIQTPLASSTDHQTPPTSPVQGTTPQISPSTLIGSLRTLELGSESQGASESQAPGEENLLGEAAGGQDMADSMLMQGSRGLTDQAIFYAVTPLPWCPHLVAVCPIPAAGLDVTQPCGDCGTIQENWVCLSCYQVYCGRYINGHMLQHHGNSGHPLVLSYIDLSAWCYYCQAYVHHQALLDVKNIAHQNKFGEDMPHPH
Experimental: (§1) Determining the inhibition capability of HDAC through the substrate method of fluorophore coupled acetylized peptide fragment (Lys-Ac-AMC). HDAC2-11 proteins of subtypes are purchased from BPS Bioscience Company with the Art. […] The reaction buffer system is a modified Tris buffer (pH7.0). The small molecule compounds are prepared and dissolved with 100% DMSO. […] Adding the compound into the reaction wells of the 384 well plate at the designed concentration, then adding 15 μL HDAC enzyme solution into the reaction wells (adding 15 μL blank buffer into the control well 0) for incubation under ambient temperature for 15 min; then adding 10 μL substrate solution to start reaction.
(§2) Analyzing the result data with the software GraphPad Prism and calculating the value of IC50 as per the formula: Y=background data+(top data−background data)/(1+10^((Log IC50−X)*rate of curve)). Where, Y refers to the inhibition ratio (%) and X refers to the compound concentration.

[1] = tested on: OCI-LY1 cells (B-cell lymphoma); assay: Proliferation inhibition, OCI-LY1 (cck-8); assay type: cell-based; conditions: Homo sapiens, 96 h incubation
Excerpt: Calculating the value of IC50 as per the formula: Y=background data+(top data−background data)/(1+10^((Log IC50−X)*rate of curve)). Where, Y refers to the inhibition ratio (%) and X refers to the compound concentration.

HDAC11 = target: T2, HDAC11 (Homo sapiens, UniProt Q96DB2); assay: HDAC11 enzyme inhibition (Lys-Ac-AMC); assay type: biochemical; conditions: Table 4, graded
T2 construct: purchased BPS Bioscience 50011
T2 sequence (Q96DB2 1-347): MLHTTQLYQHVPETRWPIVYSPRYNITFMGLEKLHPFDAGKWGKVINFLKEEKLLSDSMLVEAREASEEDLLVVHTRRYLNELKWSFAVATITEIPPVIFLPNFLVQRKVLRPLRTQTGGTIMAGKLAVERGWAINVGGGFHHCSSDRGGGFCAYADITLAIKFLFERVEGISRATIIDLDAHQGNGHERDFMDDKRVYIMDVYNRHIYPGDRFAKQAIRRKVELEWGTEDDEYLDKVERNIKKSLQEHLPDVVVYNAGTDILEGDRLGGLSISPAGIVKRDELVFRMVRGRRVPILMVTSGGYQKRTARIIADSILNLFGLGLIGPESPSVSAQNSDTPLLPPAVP
Experimental: as §1, §2

HDAC1 = target: T3, HDAC1 (Homo sapiens, UniProt Q13547); assay: In vitro HDAC1 enzymatic activity inhibition (Lys-Ac-AMC substrate); assay type: biochemical
T3 construct: purchased BPS Bioscience
Method in brief: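 Fluorogenic Lys-Ac-AMC deacetylation with trypsin development in modified Tris buffer pH 7.0; compound preincubated with enzyme 15 min at ambient temperature before substrate addition. Final HDAC1 6 nM, trypsin 0.05 μM, Ac-peptide 8 μM. IC50 from four-parameter fit of % inhibition versus concentration.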

HDAC4 = target: T4, HDAC4 (Homo sapiens, UniProt P56524); assay: HDAC4 enzyme inhibition (Lys-Ac-AMC); assay type: biochemical; conditions: Table 4, graded
T4 construct: purchased BPS Bioscience 50004
Experimental: as §1, §2

[2] = Table 1, graded, read-out: HDAC1 IC50
[3] = Table 4, graded, read-out: HDAC1 IC50
[4] = read-out: inhibition value IC50 to the activity of HDAC1

T3 sequence (Q13547 whole entry, species assumed): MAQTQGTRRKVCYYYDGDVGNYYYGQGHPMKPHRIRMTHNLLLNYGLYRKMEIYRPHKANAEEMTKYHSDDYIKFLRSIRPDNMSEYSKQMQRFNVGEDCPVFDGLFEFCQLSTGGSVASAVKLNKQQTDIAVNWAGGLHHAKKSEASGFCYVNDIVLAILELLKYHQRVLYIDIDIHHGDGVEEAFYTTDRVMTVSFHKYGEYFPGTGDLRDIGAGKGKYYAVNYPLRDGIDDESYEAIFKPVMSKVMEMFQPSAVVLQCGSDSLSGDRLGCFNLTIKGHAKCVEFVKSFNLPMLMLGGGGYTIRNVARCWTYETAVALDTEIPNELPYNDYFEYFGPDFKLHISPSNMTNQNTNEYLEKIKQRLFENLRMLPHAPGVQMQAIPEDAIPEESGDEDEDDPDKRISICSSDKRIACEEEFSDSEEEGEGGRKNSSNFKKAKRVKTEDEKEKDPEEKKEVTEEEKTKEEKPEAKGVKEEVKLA
T4 sequence (P56524 627-1084 limits assumed): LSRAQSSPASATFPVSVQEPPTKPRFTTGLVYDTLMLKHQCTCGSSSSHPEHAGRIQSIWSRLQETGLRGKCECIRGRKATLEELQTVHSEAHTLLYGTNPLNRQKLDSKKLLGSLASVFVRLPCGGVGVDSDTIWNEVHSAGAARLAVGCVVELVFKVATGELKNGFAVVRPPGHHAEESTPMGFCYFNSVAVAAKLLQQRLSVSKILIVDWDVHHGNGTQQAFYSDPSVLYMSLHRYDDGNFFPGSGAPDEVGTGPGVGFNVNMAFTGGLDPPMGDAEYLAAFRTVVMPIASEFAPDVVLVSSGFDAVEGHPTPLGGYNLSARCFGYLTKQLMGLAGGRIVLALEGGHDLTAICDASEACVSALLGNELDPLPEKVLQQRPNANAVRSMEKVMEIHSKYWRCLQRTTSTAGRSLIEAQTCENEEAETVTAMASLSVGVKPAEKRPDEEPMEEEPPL

Row | Structure (SMILES) | pIC50 (HDAC6) | pIC50 [1] | pIC50 (HDAC11) | pIC50 (HDAC1; [2]) | pIC50 (HDAC1; [3]) | pIC50 (HDAC4) | pIC50 (HDAC1; [4])
1 | COc1ccc(-c2nc(N3CCOCC3)c3nc(CN(C)c4ncc(C(=O)NO)cn4)n(C)c3n2)cn1 [CLJ-1, 2-(((2-(6-methoxypyridine-3-yl)-9-methyl-6-morpholine-9H-purine-8-yl))methyl(methyl)amino)-N-hydroxyl pyrimidine-5-formamide] | 7.00 to 9.00 | 7.00 to 8.00 | 5.00 to 6.00 | > 7.00 | 7.00 to 9.00 | 5.00 to 6.00 | –
2 | CN(Cc1nc2c(N3CCOCC3)nc(-c3cnc(N)nc3)nc2n1C)c1ncc(C(=O)NO)cn1 [CLJ-11, 2-(((2-(2-aminopyrimidine-5-yl)-9-methyl-6-morpholine-9H-purine-8-yl))methyl(methyl)amino)-N-hydroxyl pyrimidine-5-formamide] | 7.00 to 9.00 | 6.00 to 7.00 | 5.00 to 6.00 | > 7.00 | 7.00 to 9.00 | 6.00 to 7.00 | –
3 | COc1ccc(-c2nc(N3CCOCC3)c3nc(CN(C)c4ncc(C(=O)NO)cn4)n(C)c3n2)cc1 [CLJ-29, 2-(((2-(4-methoxyphenyl)-9-methyl-6-morpholine-9H-purine-8-yl))methyl(methyl)amino)-N-hydroxyl pyrimidine-5-formamide] | 7.00 to 9.00 | 8.00 to 9.00 | 5.00 to 6.00 | > 9.00 | > 9.00 | 5.00 to 6.00 | > 9.00
4 | CN(Cc1nc2c(N3CCOCC3)nc(-c3ccc(N)cc3)nc2n1C)c1ncc(C(=O)NO)cn1 [CLJ-44] | 7.00 to 9.00 | 7.00 to 8.00 | 5.00 to 6.00 | > 9.00 | > 9.00 | 5.00 to 6.00 | > 9.00
5 | Cc1[nH]c2ccccc2c1CCNCc1ccc(/C=C/C(=O)NO)cc1 [LBH589, panobinostat, reference compound] | – | 7.00 to 8.00 | – | – | – | – | –
